# Measurements taken from patent publication US12465594B2 (Brown University, priority 2018, dated 2025).
# Legend:
# D5 = D5 (Homo sapiens, UniProt P21918); assay: PDSP binding assay; conditions: 10 μM, quadruplicate, cloned target
# CRF1 = CRF1 (Homo sapiens, UniProt P34998); assay: CRF1 Ca2+ assay; conditions: presence of EC80 CRF
# D3 = D3 (Homo sapiens, UniProt P35462); assay: PDSP binding assay; conditions: 10 μM, quadruplicate, cloned target
# Sigma 2 = assay: PDSP binding assay; conditions: 10 μM, quadruplicate, cloned target
# Beta1 = Beta1 (Homo sapiens, UniProt P08588); assay: PDSP binding assay; conditions: 10 μM, quadruplicate, cloned target
# CRF2 = CRF2 (Homo sapiens, UniProt Q13324); assay: CRF2 Ca2+ assay (absence of CRFBP(10 kD)); conditions: presence of EC80 CRF
# H4 = H4 (Homo sapiens, UniProt Q9H3N8); assay: PDSP binding assay; conditions: 10 μM, quadruplicate, cloned target
# NET = NET (Homo sapiens, UniProt P23975); assay: PDSP binding assay; conditions: 10 μM, quadruplicate, cloned target
# Alpha1D = Alpha1D (Homo sapiens, UniProt P25100); assay: PDSP binding assay; conditions: 10 μM, quadruplicate, cloned target
# Beta2 = Beta2 (Homo sapiens, UniProt P07550); assay: PDSP binding assay; conditions: 10 μM, quadruplicate, cloned target
# [1] = system: NMDAR EPSCs in VTA dopamine neurons; assay: Electrophysiology: CRF potentiation of NMDAR EPSCs in VTA slices; assay type: cell-based, mouse; conditions: 30 μM compound, CRF 1 μM, VTA-DA neurons, acute brain slices
# Text: Male and female mice (n=44; 6-10 weeks) were anesthetized with Euthasol (Butler-Schein). Brains were rapidly removed and placed in ice-cold NMDG-based artificial Cerebrospinal Fluid (aCSF) cutting solution containing (in mM): 92 NMDG, 20 HEPES, 25 glucose, 30 NaHCO3, 2.5 KCl, 1.2 NaPO4 saturated with 95% O2/5% CO2 with an osmolarity of 305-308 mOsm (Advanced Cell Diagnostics). The brain was cut in ice-cold NMDG solution to obtain horizontal VTA slices, 230 μm thick, using a Leica vibratome (Leica VT1200) and slices were incubated in warm NMDG solution (34° C.) for <5 minutes before being placed in a modified aCSF holding solution (in mM): 92 NaCl, 20 HEPES, 25 glucose, 30 NaHCO3, 2.5 KCl, 1.2 NaPO4 (305-308 mOsm). Slices were incubated at room temperature for at least 1 hour before recording.
# Whole-cell patch clamp of the lateral VTA was performed under the guidance of IR-DIC optics on an Olympus BX5iWI microscope. Cells were patched with 1.8-3 MO resistance glass microelectrodes containing the following internal solution (in mM): 117 cesium methanesulfonate, 20 HEPES, 0.4 EGTA, 2.8 NaCl, 5 TEA-CI, 4 Mg-ATP, 0.4 Na-GTP, and 5 QX-314 (280-285 mOsm). Dopamine cells were identified by the following criteria: 1) large multipolar soma, 30-40 μm in diameter, 2) tonic firing of <4 Hz when cell attached, 3) large […] with negative voltage step (identified immediately following break in). […] Series resistance was monitored online. […]
# For electrophysiology measures, excitatory post-synaptic currents (EPSCs) were normalized to 7 minute of averaged baseline responses, prior to drug application. […] Results are reported as M±SEM a in bar graphs comparing drug to vehicle and analyzed by a one-way ANOVA and post-hoc comparisons to vehicle were performed using a Bonferroni multiple comparisons correction measures (**p<0.01). […]
# NMDAR excitatory postsynaptic currents (EPSCs) were recorded from VTA dopamine (DA) neurons in acute brain slices from male and female mice. […]
# CRF1, sequence (P34998 24-415): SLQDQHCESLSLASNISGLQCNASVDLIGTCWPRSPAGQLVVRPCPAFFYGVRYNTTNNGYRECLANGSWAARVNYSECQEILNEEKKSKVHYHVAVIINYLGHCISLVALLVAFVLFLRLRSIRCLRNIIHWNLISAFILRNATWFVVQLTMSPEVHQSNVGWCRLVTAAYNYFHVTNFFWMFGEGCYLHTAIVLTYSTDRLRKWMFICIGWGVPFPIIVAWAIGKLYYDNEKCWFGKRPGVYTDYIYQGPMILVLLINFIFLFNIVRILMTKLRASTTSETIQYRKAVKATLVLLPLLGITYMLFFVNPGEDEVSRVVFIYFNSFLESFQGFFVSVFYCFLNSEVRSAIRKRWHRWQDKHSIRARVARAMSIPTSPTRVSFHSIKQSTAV
# H4, sequence (Q9H3N8 whole entry): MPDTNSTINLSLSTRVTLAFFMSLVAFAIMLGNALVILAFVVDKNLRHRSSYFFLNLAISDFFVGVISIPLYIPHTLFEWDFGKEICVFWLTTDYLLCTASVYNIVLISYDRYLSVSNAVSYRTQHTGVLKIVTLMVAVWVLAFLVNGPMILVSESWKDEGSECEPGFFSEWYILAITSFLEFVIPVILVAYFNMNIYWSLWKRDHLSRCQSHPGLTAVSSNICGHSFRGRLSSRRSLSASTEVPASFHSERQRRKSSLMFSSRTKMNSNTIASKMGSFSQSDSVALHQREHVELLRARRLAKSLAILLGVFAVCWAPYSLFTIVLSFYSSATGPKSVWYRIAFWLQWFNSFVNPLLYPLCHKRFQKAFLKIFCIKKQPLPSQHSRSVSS
# Beta1, sequence (P08588 whole entry): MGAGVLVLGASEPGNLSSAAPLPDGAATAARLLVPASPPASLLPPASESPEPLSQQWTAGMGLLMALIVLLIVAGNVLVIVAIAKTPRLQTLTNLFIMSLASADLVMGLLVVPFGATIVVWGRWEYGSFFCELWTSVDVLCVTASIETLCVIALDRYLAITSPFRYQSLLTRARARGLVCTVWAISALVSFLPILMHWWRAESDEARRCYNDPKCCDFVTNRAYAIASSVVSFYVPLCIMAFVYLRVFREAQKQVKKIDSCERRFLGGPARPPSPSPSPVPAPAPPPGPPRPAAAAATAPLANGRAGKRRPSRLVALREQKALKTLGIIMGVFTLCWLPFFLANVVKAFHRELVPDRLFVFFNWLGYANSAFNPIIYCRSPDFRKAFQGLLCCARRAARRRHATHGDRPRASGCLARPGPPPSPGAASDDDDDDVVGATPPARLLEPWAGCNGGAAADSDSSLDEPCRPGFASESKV
# NET, sequence (P23975 whole entry): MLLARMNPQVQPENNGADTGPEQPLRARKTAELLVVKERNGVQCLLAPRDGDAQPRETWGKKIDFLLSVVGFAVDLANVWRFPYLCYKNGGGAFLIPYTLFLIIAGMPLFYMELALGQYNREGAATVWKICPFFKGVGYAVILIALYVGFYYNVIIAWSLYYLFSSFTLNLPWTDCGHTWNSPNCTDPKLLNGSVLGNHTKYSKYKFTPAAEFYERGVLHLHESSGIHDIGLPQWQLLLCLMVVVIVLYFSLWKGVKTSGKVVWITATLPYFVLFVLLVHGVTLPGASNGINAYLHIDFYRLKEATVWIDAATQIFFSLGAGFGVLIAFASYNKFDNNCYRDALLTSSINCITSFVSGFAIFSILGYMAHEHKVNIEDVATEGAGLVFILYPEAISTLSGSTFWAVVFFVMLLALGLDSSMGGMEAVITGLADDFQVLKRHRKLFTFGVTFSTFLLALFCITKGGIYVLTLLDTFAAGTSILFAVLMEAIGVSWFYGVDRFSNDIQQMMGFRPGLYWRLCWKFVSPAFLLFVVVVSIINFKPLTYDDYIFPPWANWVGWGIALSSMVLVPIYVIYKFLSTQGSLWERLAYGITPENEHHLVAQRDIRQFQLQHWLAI
# Alpha1D, sequence (P25100 whole entry): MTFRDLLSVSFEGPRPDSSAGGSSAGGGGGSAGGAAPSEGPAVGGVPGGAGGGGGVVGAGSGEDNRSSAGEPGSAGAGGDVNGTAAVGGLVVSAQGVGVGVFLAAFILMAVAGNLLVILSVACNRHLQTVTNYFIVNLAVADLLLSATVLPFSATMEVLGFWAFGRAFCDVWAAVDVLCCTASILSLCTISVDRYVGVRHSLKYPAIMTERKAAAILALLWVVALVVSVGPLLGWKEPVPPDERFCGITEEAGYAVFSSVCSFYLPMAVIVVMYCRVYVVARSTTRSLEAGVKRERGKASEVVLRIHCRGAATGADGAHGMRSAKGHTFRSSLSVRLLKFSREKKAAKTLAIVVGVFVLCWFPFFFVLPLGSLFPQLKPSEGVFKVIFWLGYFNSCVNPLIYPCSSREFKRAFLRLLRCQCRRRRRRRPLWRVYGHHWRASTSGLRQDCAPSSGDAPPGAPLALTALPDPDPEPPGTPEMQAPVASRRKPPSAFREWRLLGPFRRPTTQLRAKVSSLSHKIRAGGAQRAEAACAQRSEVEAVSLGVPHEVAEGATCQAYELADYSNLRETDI
# Beta2, sequence (P07550 whole entry): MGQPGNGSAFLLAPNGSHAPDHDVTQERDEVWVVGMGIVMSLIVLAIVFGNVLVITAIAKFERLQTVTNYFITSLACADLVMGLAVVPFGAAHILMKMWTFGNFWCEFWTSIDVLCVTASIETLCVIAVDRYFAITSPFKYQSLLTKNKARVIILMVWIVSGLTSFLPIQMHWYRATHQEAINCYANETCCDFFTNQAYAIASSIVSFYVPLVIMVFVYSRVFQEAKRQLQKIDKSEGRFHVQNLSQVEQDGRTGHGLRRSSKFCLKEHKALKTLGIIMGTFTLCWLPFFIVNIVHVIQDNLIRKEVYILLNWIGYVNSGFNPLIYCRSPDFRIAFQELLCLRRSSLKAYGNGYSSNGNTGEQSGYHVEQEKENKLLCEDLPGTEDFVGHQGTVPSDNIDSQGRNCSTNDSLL
# D3, sequence (P35462 whole entry): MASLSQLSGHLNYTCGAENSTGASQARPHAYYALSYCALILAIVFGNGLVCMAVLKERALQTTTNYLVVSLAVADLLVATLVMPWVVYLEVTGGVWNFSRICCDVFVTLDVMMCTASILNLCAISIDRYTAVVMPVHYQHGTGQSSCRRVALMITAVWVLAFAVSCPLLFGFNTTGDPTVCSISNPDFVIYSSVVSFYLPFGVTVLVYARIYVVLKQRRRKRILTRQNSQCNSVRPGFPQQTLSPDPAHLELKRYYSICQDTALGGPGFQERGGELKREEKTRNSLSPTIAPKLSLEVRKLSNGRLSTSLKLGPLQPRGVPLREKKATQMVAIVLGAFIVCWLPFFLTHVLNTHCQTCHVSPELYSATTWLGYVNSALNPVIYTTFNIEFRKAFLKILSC
# D5, sequence (P21918 whole entry): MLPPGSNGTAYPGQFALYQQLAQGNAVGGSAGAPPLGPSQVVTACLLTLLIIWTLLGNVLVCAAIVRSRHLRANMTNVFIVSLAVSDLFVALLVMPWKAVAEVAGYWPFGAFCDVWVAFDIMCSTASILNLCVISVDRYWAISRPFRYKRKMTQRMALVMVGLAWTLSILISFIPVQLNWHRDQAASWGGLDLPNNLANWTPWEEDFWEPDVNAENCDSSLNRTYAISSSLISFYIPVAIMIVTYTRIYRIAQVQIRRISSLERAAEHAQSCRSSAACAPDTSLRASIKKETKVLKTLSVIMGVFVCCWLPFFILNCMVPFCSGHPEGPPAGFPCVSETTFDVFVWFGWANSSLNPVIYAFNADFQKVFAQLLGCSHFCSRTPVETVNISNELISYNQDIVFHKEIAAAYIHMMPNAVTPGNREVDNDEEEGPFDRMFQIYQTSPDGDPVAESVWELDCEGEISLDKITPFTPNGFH
# CRF2, sequence (Q13324 whole entry): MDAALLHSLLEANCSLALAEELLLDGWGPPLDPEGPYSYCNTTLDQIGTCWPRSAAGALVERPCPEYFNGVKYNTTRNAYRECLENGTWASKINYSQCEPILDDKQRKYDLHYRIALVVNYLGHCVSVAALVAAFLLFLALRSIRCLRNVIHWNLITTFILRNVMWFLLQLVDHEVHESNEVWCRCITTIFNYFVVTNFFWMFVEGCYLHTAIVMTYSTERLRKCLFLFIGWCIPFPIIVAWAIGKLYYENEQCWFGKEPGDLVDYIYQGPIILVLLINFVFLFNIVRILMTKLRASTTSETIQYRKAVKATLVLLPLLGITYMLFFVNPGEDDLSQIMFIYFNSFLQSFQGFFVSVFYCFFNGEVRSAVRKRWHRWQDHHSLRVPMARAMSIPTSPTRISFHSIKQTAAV
Structure (SMILES),Activity at D5 (binding assay) (D5),CRF1 activity (CRF1),Activity at D3 (binding assay) (D3),Activity at Sigma 2 (binding assay) (Sigma 2),Activity at Beta1 (binding assay) (Beta1),Activity toward CRF2 in the absence of CRFBP(10 kD) (CRF2),Activity at H4 (binding assay) (H4),Activity at NET (binding assay) (NET),Activity at Alpha1D (binding assay) (Alpha1D),Activity at Beta2 (binding assay) (Beta2),Block of CRF potentiation of NMDAR EPSCs [1]
Brc1ccccc1-c1nnc(CSc2nnnn2-c2ccccc2)o1 [MLS-0046818],12%,inactive,−11%,−7%,7%,inactive,8%,8%,−10%,1%,sufficient to block the CRF effect
CC(C)Cn1c(SCC(=O)N2CCc3ccccc3C2)nc2cc(Cl)ccc2c1=O [MLS-0219419],−15%,inactive,−6%,9%,1%,,−15%,12%,−19%,−13%,sufficient to block the CRF effect
